Data on 36 compounds can be found in patent US10703764B2, “Benzopiperazine compositions as BET bromodomain inhibitors” (FORMA Therapeutics, Inc., priority 2013, dated 2020).

One may read the IC50 as the concentration needed to halve the response being measured. High values mean weaker potency, low ones greater potency.

Test [1] deals with T1, BRD4 BD1 (Homo sapiens, UniProt O60885).
T1 construct: made in house
In words: AlphaScreen binding assay, BRD4 Bromodomain 1. How it is done:
(§1) The binding of Example compounds to BRD4 Bromodomain 1 and BRD4 Bromodomain 2 was assessed using 384-well AlphaScreen assay technology. His-epitope tagged BRD4 BD144-168 and BRD4 BD2333-460 were cloned, expressed, and purified to homogeneity. BRD4 BD1 and BRD4 BD2 binding and inhibition was assessed by monitoring the engagement of biotinylated Histone H4 (1-21) K5/8/12/16 tetra-acetylated peptide with the targets using the AlphaScreen technology (PerkinElmer). Specifically, in a 384-well black or white flat bottom plate, BRD4 BD1 (50 nM final) or BRD4 BD2 (100 nM final) was combined with peptide (50 nM final for BD1 or 100 nM final for BD2) in 50 mM HEPES (pH 7.3), 100 mM NaCl, 0.1% (w/v) BSA, and 0.01% (w/v) Triton X-100 either in the presence of DMSO (final 1.25% DMSO) or compound dilution series in DMSO. Alpha streptavidin donor beads and Nickel-chelate acceptor beads were added to a final concentration of 10 μg/ml each. After a minimum of 1 hour equilibration, plates were read on a BMG PHERAstar FS multi-label reader (BMG LabTech). The half maximal inhibitory concentration (IC50) values were calculated using IDBS Activity Base software with a four parameter logistic curve fit by the equation y=A+((B−A)/(1+((C/x)^D))), wherein A denotes the bottom plateau of the curve, B denotes the top plateau of the curve, C denotes the x value at the middle of the curve, D denotes the slope factor, x denotes the original known x values, and y denotes the original known y values. Data was fitted using the Levenburg Marquardt algorithm.
(Bead proximity is the source of the signal in Alpha formats.)

In test [2] the target is T2, BRD4 BD2 (Homo sapiens, UniProt O60885).
T2 construct: made in house
Put plainly: AlphaScreen binding assay, BRD4 Bromodomain 2. How it is done: as §1

A value given as a limit tells only on which side of the number the result lay.

As to `CCOC(=O)N1c2ccc(-c3ccc(S(C)(=O)=O)cc3)cc2N(C(=O)c2ccco2)C[C@@H]1C` [Example I-371], the results for the IC50 in test [1] and in test [2] were more than 10000 nM and more than 500 nM, respectively.

In the case of `CC(=O)N1c2ccc(-c3ccc(NS(C)(=O)=O)cc3)cc2N(C(=O)Oc2cccnc2)C[C@@H]1C` [Example I-1277], the values for the IC50 in test [1] and in test [2] were 1000 to 10000 nM and 50 to 500 nM, respectively.

As for `CC(=O)N1c2ccccc2N(C(=O)Cc2csc3ccc(Cl)cc23)C[C@@H]1C` [Example I-739], the IC50 in test [1] was more than 10000 nM; in test [2], more than 500 nM.

As to `CC(=O)N1c2ccc(-c3ccc(C(=O)NCCN)cc3)cc2N(C(=O)C2CC2)C[C@@H]1C` [Example I-451], the IC50 fell in the range of 100 to 1000 nM in test [1] and 50 to 500 nM in test [2].

Turning to `CC(=O)N1c2ccc(-c3ccnc(C(F)(F)F)c3)cc2N(C(=O)c2ccco2)C[C@@H]1C` [Example I-861], the IC50 in test [1] lay in the range of 1000 to 10000 nM; in test [2] it was 50 to 500 nM.

Turning to `COC(=O)N1c2ccc(-c3cnn(CCO)c3)cc2N(C(=O)Oc2cccnc2)C[C@@H]1C` [Example I-1282], the IC50 in test [1] is 1000 to 10000 nM; in test [2], more than 500 nM.

Regarding `CC(=O)N1c2ccc(C(=O)N3CCCC3)cc2N(C(=O)c2ccco2)C[C@@H]1C` [Example I-101, (S)-1-(4-(furan-2-carbonyl)-2-methyl-6-(pyrrolidine-1-carbonyl)-3,4-dihydroquinoxalin-1(2H)-yl)ethanone], the IC50 is more than 10000 nM in test [1] and more than 500 nM in test [2].

On to `CC(=O)N1c2ccc(Nc3ccccc3)cc2N(C(=O)c2ccco2)C[C@@H]1C` [Example I-991], for which the IC50 in test [1] lay within 1000 to 10000 nM; in test [2], 50 to 500 nM.

As to `CC(=O)N1c2ccccc2N(S(=O)(=O)C2CC2)C[C@@H]1C` [Example I-952], the IC50 was more than 10000 nM in test [1] and more than 500 nM in test [2].

`CC(=O)N1c2ccccc2N(C(=O)c2snnc2C)C[C@@H]1C` [Example I-757]: the figures for the IC50 in test [1] and in test [2] were more than 10000 nM and more than 500 nM, respectively.

On to `CC(=O)N1c2ccc(-c3ccc(S(C)(=O)=O)cc3)cc2N(C=O)C[C@@H]1C` [Example I-102, (S)-4-acetyl-3-methyl-7-(4-(methylsulfonyl)phenyl)-3,4-dihydroquinoxaline-1(2H)-carbaldehyde], for which the IC50 in test [1] was more than 10000 nM; in test [2] it was more than 500 nM.

On to `CC(=O)N1c2ccccc2N(C(=O)[C@H]2COc3ccccc3O2)C[C@@H]1C` [Example I-737], for which the values for the IC50 in test [1] and in test [2] were more than 10000 nM and more than 500 nM, respectively.

On to `COC(=O)N1c2ccc(-c3ccc4c(c3)CCN4S(C)(=O)=O)cc2N(C(=O)Oc2cccnc2)C[C@@H]1C` [Example I-1291], for which the IC50 in test [1] is 1000 to 10000 nM; in test [2] it was more than 500 nM.

On to `CC(=O)N1c2ccc(-c3ccc(S(C)(=O)=O)cc3)cc2N(c2ccccn2)C[C@@H]1C` [Example I-47, (S)-1-(2-methyl-6-(4-(methylsulfonyl)phenyl)-4-(pyridin-2-yl)-3,4-dihydroquinoxalin-1 (2H)-yl)ethan-1-one], for which the IC50 in test [1] is 1000 to 10000 nM; in test [2], less than 50 nM.

Take `COc1ccc(OCC(=O)N2C[C@H](C)N(C(C)=O)c3ccccc32)cc1` [Example I-733]: the IC50 in test [1] was more than 10000 nM; in test [2], more than 500 nM.

In the case of `CC(=O)N1c2ccccc2N(C(=O)c2ccncc2)C[C@@H]1C` [Example I-704], the IC50 in test [1] was more than 10000 nM; in test [2], more than 500 nM.

Turning to `CC(=O)N1c2ccccc2N(S(=O)(=O)c2ccc(C(F)(F)F)cc2)C[C@@H]1C` [Example I-937], the IC50 in test [1] was more than 10000 nM; in test [2] it was more than 500 nM.

`COC(=O)N1c2ccc(-c3ccc(C(=O)NCc4ncco4)cc3)cc2N(C(=O)OC(C)C)C[C@@H]1C` [Example I-583]: the IC50 in test [1] is 1000 to 10000 nM; in test [2], more than 500 nM.

Regarding `CC(=O)N1c2ccccc2N(C(=O)c2ccccc2)C[C@@H]1C` [Example I-694], the IC50 was more than 10000 nM in test [1] and more than 500 nM in test [2].

With `CC(=O)N1c2ccc(-c3cnn(C4CC4)c3)cc2N(C(=O)Oc2cncc(C)c2)C[C@@H]1C` [Example I-520], the IC50 in test [1] fell in the range of 1000 to 10000 nM; in test [2], 50 to 500 nM.

In the case of `CC(=O)N1c2ccccc2N(S(=O)(=O)Cc2ccccc2Cl)C[C@@H]1C` [Example I-953], the figures for the IC50 in test [1] and in test [2] were more than 10000 nM and more than 500 nM, respectively.

For the compound `CC(=O)N1c2ccc(-c3ccc(S(C)(=O)=O)cc3)cc2N(c2ncccn2)C[C@@H]1C` [Example I-45, (S)-1-(2-methyl-6-(4-(methylsulfonyl)phenyl)-4-(pyrimidin-2-yl)-3,4-dihydroquinoxalin-1(2H)-yl)ethanone], the 50% inhibitory concentration (IC50) in test [1] was 1000 to 10000 nM; in test [2], more than 500 nM.

Consider `CC(=O)N1c2ccc(-c3ccc(S(C)(=O)=O)cc3)cc2N(C(=O)c2ccc(Oc3cc(Cl)cc(Cl)c3)o2)C[C@@H]1C` [Example I-880], for which the IC50 is more than 10000 nM in test [1] and more than 500 nM in test [2].

As for `CC(=O)N1c2ccccc2N(S(=O)(=O)c2cccc(Cl)c2)C[C@@H]1C` [Example I-946], the IC50 in test [1] is more than 10000 nM; in test [2], more than 500 nM.

As for `CC(=O)N1c2ccc(-c3ccc(C(F)(F)F)cc3)cc2N(C(=O)c2ccco2)C[C@@H]1C` [Example I-815], the IC50 in test [1] lay in the range of 1000 to 10000 nM; in test [2], 50 to 500 nM.

On to `CC(=O)N1c2ccc(-c3ccc(-n4cccn4)cc3)cc2N(C(=O)c2ccco2)C[C@@H]1C` [Example I-803], for which the IC50 in test [1] lay in the range of 1000 to 10000 nM; in test [2], 50 to 500 nM.

On to `CC(=O)N1c2ccccc2N(C(=O)c2cnc(-c3cccnc3)s2)C[C@@H]1C` [Example I-726], for which the figures for the IC50 in test [1] and in test [2] were more than 10000 nM and more than 500 nM, respectively.

In the case of `CC(=O)N1c2ccccc2N(Cc2cccc(C(F)(F)F)c2)C[C@@H]1C` [Example I-899], the IC50 in test [1] was more than 10000 nM; in test [2] it was more than 500 nM.

Consider `CC(=O)N1c2ccccc2N(C(=O)Cc2nc(-c3ccccc3)oc2C)C[C@@H]1C` [Example I-769], for which the IC50 in test [1] was more than 10000 nM; in test [2], more than 500 nM.

Turning to `CC(=O)N1c2ccc(-c3cnsc3)cc2N(C(=O)c2ccco2)C[C@@H]1C` [Example I-432], the results for the IC50 in test [1] and in test [2] were 100 to 1000 nM and 50 to 500 nM, respectively.

`CC(=O)N1c2ccc(-c3ccc4nncn4n3)cc2N(C(=O)c2ccco2)C[C@@H]1C` [Example I-396]: the results for the IC50 in test [1] and in test [2] were 1000 to 10000 nM and 50 to 500 nM, respectively.

As for `CC(=O)N1c2ccccc2N(C(=O)CN2CCCCCC2=O)C[C@@H]1C` [Example I-764], the results for the IC50 in test [1] and in test [2] were more than 10000 nM and more than 500 nM, respectively.

Turning to `CC(=O)N1c2ccc(-c3ccc(S(C)(=O)=O)cc3)cc2N(C(=O)NCC(C)C)C[C@@H]1C` [Example I-978], the IC50 in test [1] was more than 10000 nM; in test [2], more than 500 nM.

With `CCC1(COC(=O)N2C[C@H](C)N(C(C)=O)c3ccc(-c4cnn(C5COC5)c4)cc32)COC1` [Example I-63, (S)-(3-ethyloxetan-3-yl)methyl 4-acetyl-3-methyl-7-(1-(oxetan-3-yl)-1H-pyrazol-4-yl)-3,4-dihydroquinoxaline-1(2H)-carboxylate], the IC50 is 1000 to 10000 nM in test [1] and 50 to 500 nM in test [2].

With `CC(=O)N1c2ccccc2N(C(=O)Cc2ccc3c(c2)OCO3)C[C@@H]1C` [Example I-709], the IC50 is more than 10000 nM in test [1] and more than 500 nM in test [2].

With `CC(=O)N1c2ccc(-c3cnn(C)c3C)cc2N(C(=O)OC(C)C)C[C@@H]1C` [Example I-339], the IC50 in test [1] lay in the range of 1000 to 10000 nM; in test [2], 50 to 500 nM.
